Experimental data: ChEMBL document CHEMBL1124638, “2,4-Diamino-5-benzylpyrimidines and analogues as antibacterial agents. 10. 2,4-Diamino-5-(6-quinolylmethyl)- and -[(tetrahydro-6-quinolyl)methyl]pyrimidine derivatives. Further specificity studies” (J Med Chem, 1989)
Converted amounts (≈) assume the structure as drawn.

Experiments:
Klebsiella pneumoniae = experiment: Comparative in vitro antibacterial activity with trimethoprim against Klebsiella pneumoniae CN3632; format: functional
Proteus mirabilis = experiment: Comparative in vitro antibacterial activity with trimethoprim against Proteus mirabilis S2409; format: functional
[1] = system: Bordetella bronchiseptica; experiment: Comparative in vitro antibacterial activity with trimethoprim against Bordetella bronchiseptica CN385; format: functional
Enterococcus faecalis = experiment: Comparative in vitro antibacterial activity with trimethoprim against Streptococcus faecalis CN478; format: functional
Streptococcus agalactiae = experiment: Comparative in vitro antibacterial activity with trimethoprim against Streptococcus agalactiae CN1143; format: functional
Proteus vulgaris = experiment: Comparative in vitro antibacterial activity with trimethoprim against Proteus vulgaris CN329; format: functional
[2] = system: Mycolicibacterium smegmatis; experiment: Comparative in vitro antibacterial activity with trimethoprim against Mycobacterium smegmatis S 3254; format: functional
Streptococcus pyogenes = experiment: Comparative in vitro antibacterial activity of compound with trimethoprim against Streptococcus pyogenes CN10; format: functional
Salmonella typhimurium = experiment: Comparative in vitro antibacterial activity with trimethoprim against Salmonella Typhimurium S 8587; format: functional, Salmonella enterica subsp. enterica serovar Typhimurium; conditions: Salmonella enterica
[3] = Comparative in vitro antibacterial activity with trimethoprim against Salmonella typhi CN512; format: functional, salmonella typhosa
Pasteurella multocida = experiment: Comparative in vitro antibacterial activity with trimethoprim against Pasteurella multocida ATCC 6587; format: functional
Vibrio cholerae = experiment: Comparative in vitro antibacterial activity with trimethoprim against Vibrio cholerae ATCC 14035; format: functional
Klebsiella aerogenes = experiment: Comparative in vitro antibacterial activity with trimethoprim against Enterobacter aerogenes 2200/86; format: functional
Dihydrofolate reductase [4] = target: T1, Dihydrofolate reductase (Rattus norvegicus, UniProt Q920D2); experiment: Inhibitory activity against dihydrofolate reductase in rat liver; conditions: read-out: I50
T1 sequence (Q920D2 whole entry): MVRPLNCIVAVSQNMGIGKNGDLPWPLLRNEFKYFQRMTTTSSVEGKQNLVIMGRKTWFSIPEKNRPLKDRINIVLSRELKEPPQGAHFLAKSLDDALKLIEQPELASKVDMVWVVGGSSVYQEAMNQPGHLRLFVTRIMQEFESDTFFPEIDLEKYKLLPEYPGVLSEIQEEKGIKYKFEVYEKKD

Citrobacter freundii = experiment: Comparative in vitro antibacterial activity with trimethoprim against Citrobacter freundii 2200/77; format: functional
Staphylococcus aureus = experiment: Comparative in vitro antibacterial activity with trimethoprim against Staphylococcus aureus CN491; format: functional
Escherichia coli = experiment: Comparative in vitro antibacterial activity with trimethoprim against Escherichia coli CN314; format: functional
Serratia marcescens = experiment: Comparative in vitro antibacterial activity with trimethoprim against Serratia marcescens CN2398; format: functional
Shigella flexneri = experiment: Comparative in vitro antibacterial activity with trimethoprim against Shigella flexneri CN6007; format: functional
Dihydrofolate reductase [5] = target: Dihydrofolate reductase (Neisseria gonorrhoeae, UniProt P04174); experiment: Inhibitory activity against Dihydrofolate reductase in Neisseria gonorrhoeae; conditions: read-out: I50
Chain of Dihydrofolate reductase (Neisseria gonorrhoeae, UniProt P04174) (P04174 whole entry): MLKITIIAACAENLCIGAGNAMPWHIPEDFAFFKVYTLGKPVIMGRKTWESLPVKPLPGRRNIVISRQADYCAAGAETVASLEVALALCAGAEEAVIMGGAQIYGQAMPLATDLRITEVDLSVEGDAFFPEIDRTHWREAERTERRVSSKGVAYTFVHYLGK

Row | SMILES | MIC (Klebsiella pneumoniae) [µg/mL] | MIC (Proteus mirabilis) [µg/mL] | MIC [1] [µg/mL] | MIC (Enterococcus faecalis) [µg/mL] | MIC (Streptococcus agalactiae) [µg/mL] | MIC (Proteus vulgaris) [µg/mL] | MIC [2] [µg/mL] | MIC (Streptococcus pyogenes) [µg/mL] | MIC (Salmonella typhimurium) [µg/mL] | MIC [3] [µg/mL] | MIC (Pasteurella multocida) [µg/mL] | MIC (Vibrio cholerae) [µg/mL] | MIC (Klebsiella aerogenes) [µg/mL] | IC50 (Dihydrofolate reductase [4]) [µM] | MIC (Citrobacter freundii) [µg/mL] | MIC (Staphylococcus aureus) [µg/mL] | MIC (Escherichia coli) [µg/mL] | MIC (Serratia marcescens) [µg/mL] | MIC (Shigella flexneri) [µg/mL] | IC50 (Dihydrofolate reductase [5]) [µM]
1 | COCCOc1cc(Cc2cnc(N)nc2N)cc2cccnc12 | 100 (≈ 307 µM) | > 30 | 30 (≈ 92.2 µM) | 3 (≈ 9.22 µM) | 10 (≈ 30.7 µM) | > 100 | 3 (≈ 9.22 µM) | 3 (≈ 9.22 µM) | 100 (≈ 307 µM) | 100 (≈ 307 µM) | 30 (≈ 92.2 µM) | 30 (≈ 92.2 µM) | 100 (≈ 307 µM) | 9.9 | 300 (≈ 922 µM) | 10 (≈ 30.7 µM) | 100 (≈ 307 µM) | > 10 | 100 (≈ 307 µM) | 
2 | COc1cc(Cc2cnc(N)nc2N)cc2c1N(CCO)CCC2C (stereo not drawn) | 10 (≈ 29.1 µM) | 10 (≈ 29.1 µM) | 10 (≈ 29.1 µM) | 0.3 (≈ 0.874 µM) | 1 (≈ 2.91 µM) | 10 (≈ 29.1 µM) | 3 (≈ 8.74 µM) | 3 (≈ 8.74 µM) | 10 (≈ 29.1 µM) | 30 (≈ 87.4 µM) | 10 (≈ 29.1 µM) | 3 (≈ 8.74 µM) | 30 (≈ 87.4 µM) | 142 | 3 (≈ 8.74 µM) | 1 (≈ 2.91 µM) | 30 (≈ 87.4 µM) | 10 (≈ 29.1 µM) | 10 (≈ 29.1 µM) | 0.61
3 | COCCN1CCC(C)c2cc(Cc3cnc(N)nc3N)cc(OC)c21 (stereo not drawn) | 30 (≈ 83.9 µM) |  | 100 (≈ 280 µM) | 0.3 (≈ 0.839 µM) | 3 (≈ 8.39 µM) | > 100 | 10 (≈ 28 µM) | 1 (≈ 2.8 µM) | 100 (≈ 280 µM) | 30 (≈ 83.9 µM) | 30 (≈ 83.9 µM) | 100 (≈ 280 µM) | 30 (≈ 83.9 µM) | 260 | 100 (≈ 280 µM) | 3 (≈ 8.39 µM) | 30 (≈ 83.9 µM) | > 10 | 100 (≈ 280 µM) | 1.4
4 | Cc1ccnc2c([N+](=O)[O-])cc(Cc3cnc(N)nc3N)cc12 | 10 (≈ 32.2 µM) | 10 (≈ 32.2 µM) | 3 (≈ 9.67 µM) | 3 (≈ 9.67 µM) | 1 (≈ 3.22 µM) | 10 (≈ 32.2 µM) | 1 (≈ 3.22 µM) | 1 (≈ 3.22 µM) | 10 (≈ 32.2 µM) | 3 (≈ 9.67 µM) | 3 (≈ 9.67 µM) | 1 (≈ 3.22 µM) | 10 (≈ 32.2 µM) | 5.7 | 10 (≈ 32.2 µM) | 1 (≈ 3.22 µM) | 10 (≈ 32.2 µM) | 30 (≈ 96.7 µM) | 10 (≈ 32.2 µM) | 
5 | Cc1ccnc2ccc(Cc3cnc(N)nc3N)cc12 | 1 (≈ 3.77 µM) | 1 (≈ 3.77 µM) | 1 (≈ 3.77 µM) | 1 (≈ 3.77 µM) | 1 (≈ 3.77 µM) | 1 (≈ 3.77 µM) | 1 (≈ 3.77 µM) | 3 (≈ 11.3 µM) | 3 (≈ 11.3 µM) | 1 (≈ 3.77 µM) | 1 (≈ 3.77 µM) | 1 (≈ 3.77 µM) | 3 (≈ 11.3 µM) | 22 | 3 (≈ 11.3 µM) | 1 (≈ 3.77 µM) | 3 (≈ 11.3 µM) | 1 (≈ 3.77 µM) | 3 (≈ 11.3 µM) | 
6 | COc1cc(Cc2cnc(N)nc2N)cc2c1N(C)CCC2C (stereo not drawn) | 3 (≈ 9.57 µM) | 3 (≈ 9.57 µM) | 3 (≈ 9.57 µM) | 0.3 (≈ 0.957 µM) | 0.3 (≈ 0.957 µM) | 10 (≈ 31.9 µM) | 3 (≈ 9.57 µM) |  | 10 (≈ 31.9 µM) | 3 (≈ 9.57 µM) | 3 (≈ 9.57 µM) | 3 (≈ 9.57 µM) | 3 (≈ 9.57 µM) |  | 3 (≈ 9.57 µM) | 1 (≈ 3.19 µM) | 3 (≈ 9.57 µM) | 3 (≈ 9.57 µM) | 10 (≈ 31.9 µM) | 0.89
7 | CN1CCCc2cc(Cc3cnc(N)nc3N)ccc21 | 30 (≈ 111 µM) | 10 (≈ 37.1 µM) | 30 (≈ 111 µM) | 3 (≈ 11.1 µM) | 10 (≈ 37.1 µM) | 30 (≈ 111 µM) | 10 (≈ 37.1 µM) |  | 30 (≈ 111 µM) | 30 (≈ 111 µM) | 30 (≈ 111 µM) | 10 (≈ 37.1 µM) | 30 (≈ 111 µM) | 89 | 30 (≈ 111 µM) | 10 (≈ 37.1 µM) | 30 (≈ 111 µM) | 30 (≈ 111 µM) | 10 (≈ 37.1 µM) | 0.95
8 | CC1CCNc2ccc(Cc3cnc(N)nc3N)cc21 (stereo not drawn) | 30 (≈ 111 µM) | 10 (≈ 37.1 µM) | 10 (≈ 37.1 µM) | 3 (≈ 11.1 µM) | 3 (≈ 11.1 µM) | 10 (≈ 37.1 µM) | 3 (≈ 11.1 µM) | 1 (≈ 3.71 µM) | 10 (≈ 37.1 µM) | 10 (≈ 37.1 µM) | 3 (≈ 11.1 µM) | 3 (≈ 11.1 µM) | 10 (≈ 37.1 µM) | 22 | 30 (≈ 111 µM) | 3 (≈ 11.1 µM) | 30 (≈ 111 µM) | 10 (≈ 37.1 µM) | 30 (≈ 111 µM) | 0.4
9 | CC1CC(C)c2cc(Cc3cnc(N)nc3N)cc(Cl)c2N1 (stereo not drawn) | 100 (≈ 315 µM) | 30 (≈ 94.4 µM) | 100 (≈ 315 µM) | 3 (≈ 9.44 µM) | 3 (≈ 9.44 µM) | 100 (≈ 315 µM) | 10 (≈ 31.5 µM) | 3 (≈ 9.44 µM) | 100 (≈ 315 µM) | 100 (≈ 315 µM) | 30 (≈ 94.4 µM) | 3 (≈ 9.44 µM) | 100 (≈ 315 µM) | 41 | 100 (≈ 315 µM) | 3 (≈ 9.44 µM) | 100 (≈ 315 µM) | > 10 | 300 (≈ 944 µM) | 0.24
